Source: US8513238B2 (Hoffmann-La Roche Inc., priority 2010, dated 2013)
Counter-ions that a name gives are not always drawn.

What follows are compounds tested against T1, human V1a receptor (Homo sapiens, UniProt P37288) (assay: human V1a receptor binding (3H-Vasopressin SPA, HEK293 membranes)). Settings: membranes of HEK293 cells transiently transfected with human V1a receptor, Ki by Cheng-Prussoff, read-out: pKi (hV1a) (converted).
T1 construct: expressed in transfected cells; host or cells: HEK293 cells, transiently transfected; membranes prepared
T1 sequence (P37288 whole entry): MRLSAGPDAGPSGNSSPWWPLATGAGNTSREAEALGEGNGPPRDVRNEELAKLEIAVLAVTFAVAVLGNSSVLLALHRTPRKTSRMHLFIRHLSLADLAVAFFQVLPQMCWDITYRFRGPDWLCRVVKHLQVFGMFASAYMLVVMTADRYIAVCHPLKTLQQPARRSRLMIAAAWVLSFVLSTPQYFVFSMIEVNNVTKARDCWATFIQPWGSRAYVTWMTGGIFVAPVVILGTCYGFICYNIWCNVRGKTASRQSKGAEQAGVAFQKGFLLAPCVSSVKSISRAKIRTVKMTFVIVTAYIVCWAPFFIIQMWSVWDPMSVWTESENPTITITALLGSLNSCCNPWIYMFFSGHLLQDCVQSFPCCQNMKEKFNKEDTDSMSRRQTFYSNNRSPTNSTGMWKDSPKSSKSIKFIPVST
Method: The human V1a receptor was cloned by RT-PCR from total human liver RNA. The coding sequence was subcloned in an expression vector after sequencing to confirm the identity of the amplified sequence. […] Cell membranes were prepared from HEK293 cells transiently transfected with the expression vector and grown in 20 liter fermenters with the following protocol.
50 g of cells are resuspended in 30 ml freshly prepared ice cold Lysis buffer (50 mM HEPES, 1 mM EDTA, 10 mM magnesium dichloride adjusted to pH=7.4+complete cocktail of protease inhibitor (Roche Diagnostics)). Homogenized with Polytron for 1 min and sonicated on ice for 2×2 minutes at 80% intensity (Vibracell sonicator). The preparation is centrifuged 20 min at 500 g at 4° C., the pellet is discarded and the supernatant centrifuged 1 hour at 43,000 g at 4° C. (19,000 rpm). The pellet is resuspended in 12.5 ml Lysis buffer+12.5 ml sucrose 20% and homogenized using a Polytron for 1-2 min. The protein concentration is determined by the Bradford method and aliquots are stored at −80° C. until use. For binding studies 60 mg Yttrium silicate SPA beads (Amersham®) are mixed with an aliquot of membrane in binding buffer (50 mM Tris, 120 mM sodium chloride, 5 mM potassium chloride, 2 mM calcium dichloride, 10 mM magnesium dichloride) for 15 minutes with mixing. 50 μl of bead/membrane mixture is then added to each well of a 96 well plate, followed by 50 μl of 4 nM 3H-Vasopressin (American Radiolabeled Chemicals). For total binding measurement 100 μl of binding buffer are added to the respective wells, for non-specific binding 100 μl of 8.4 mM cold vasopressin and for compound testing 100 μl of a serial dilution of each compound in 2% dimethyl sulfoxide. The plate is incubated 1 h at room temperature, centrifuged 1 min at 1000 g and counted on a Packard Top-Count. Non-specific binding counts are subtracted from each well and data is normalized to the maximum specific binding set at 100%. To calculate an IC50 the curve is fitted using a non-linear regression model (XLfit) and the Ki is calculated using the Cheng-Prussoff equation.
`Cc1coc([C@H]2CC[C@H](c3nnc4n3-c3ccc(Cl)cc3CNC4)CC2)n1` [Example 5, trans-8-Chloro-1-[4-(4-methyl-oxazol-2-yl)-cyclohexyl]-5,6-dihydro-4H-2,3,5,10b-tetraaza-benzo[e]azulene] was tested, and the Ki was 32.4 nM.
With `Cc1onc([C@H]2CC[C@H](c3nnc4n3-c3ccc(Cl)cc3CN(C)C4)CC2)c1F` [Example 47, trans-8-Chloro-1-[4-(4-fluoro-5-methyl-isoxazol-3-yl)-cyclohexyl]-5-methyl-5,6-dihydro-4H-2,3,5,10b-tetraaza-benzo[e]azulene] the Ki was 0.575 nM.
For `Cc1onc([C@H]2CC[C@H](c3nnc4n3-c3ccc(Cl)cc3CN(C(=O)OC(C)(C)C)C4)CC2)c1C` [Example 39, trans-8-Chloro-1-[4-(4,5-dimethyl-isoxazol-3-yl)-cyclohexyl]-4H,6H-2,3,5,10b-tetraaza-benzo[e]azulene-5-carboxylic acid tert-butyl ester], the Ki was 0.2 nM.
`Cc1cc(C)n([C@H]2CC[C@H](c3nnc4n3-c3ccc(Cl)cc3CNC4)CC2)n1` [Example 116, trans-8-Chloro-1-[4-(3,5-dimethyl-pyrazol-1-yl)-cyclohexyl]-5,6-dihydro-4H-2,3,5,10b-tetraaza-benzo[e]azulene] was tested, and the Ki was 72.4 nM.
In the case of `Cc1nc([C@H]2CC[C@H](c3nnc4n3-c3ccc(Cl)cc3CN(C(=O)OC(C)(C)C)C4)CC2)oc1C` [Example 10, trans-8-Chloro-1-[4-(4,5-dimethyl-oxazol-2-yl)-cyclohexyl]-4H,6H-2,3,5,10b-tetraaza-benzo[e]azulene-5-carboxylic acid tert-butyl ester], the Ki is reported as 0.525 nM.
`Cc1cc([C@H]2CC[C@H](c3nnc4n3-c3ccc(Cl)cc3CN(C(=O)CO)C4)CC2)no1` [Example 32, trans-1-{8-Chloro-1-[4-(5-methyl-isoxazol-3-yl)-cyclohexyl]-4H,6H-2,3,5,10b-tetraaza-benzo[e]azulen-5-yl}-2-hydroxy-ethanone] was tested, and the Ki was 2.88 nM.
In the case of `CCc1nc([C@H]2CC[C@H](c3nnc4n3-c3ccc(Cl)cc3CNC4)CC2)no1` [Example 87, trans-8-Chloro-1-[4-(5-ethyl-[1,2,4]oxadiazol-3-yl)-cyclohexyl]-5,6-dihydro-4H-2,3,5,10b-tetraaza-benzo[e]azulene hydrochloride], the Ki is reported as 145 nM.
`Cc1cnc([C@H]2CC[C@H](c3nnc4n3-c3ccc(Cl)cc3CN(C)C4)CC2)o1` [Example 9, trans-8-Chloro-5-methyl-1-[4-(5-methyl-oxazol-2-yl)-cyclohexyl]-5,6-dihydro-4H-2,3,5,10b-tetraaza-benzo[e]azulene] was tested, and the Ki was 2.19 nM.
Work on `CN1Cc2cc(Cl)ccc2-n2c(nnc2[C@H]2CC[C@H](c3ncco3)CC2)C1` [Example 3, trans-8-Chloro-5-methyl-1-(4-oxazol-2-yl-cyclohexyl)-5,6-dihydro-4H-2,3,5,10b-tetraaza-benzo[e]azulene] yielded a Ki of 10.5 nM.
`Cc1cc([C@H]2CC[C@H](c3nnc4n3-c3ccc(F)cc3CNC4)CC2)no1` [Example 37, trans-8-Fluoro-1-[4-(5-methyl-isoxazol-3-yl)-cyclohexyl]-5,6-dihydro-4H-2,3,5,10b-tetraaza-benzo[e]azulene] gave a Ki of 91.2 nM.
With `Cc1nnc([C@H]2CC[C@H](c3nnc4n3-c3ccc(Cl)cc3CNC4)CC2)o1` [Example 64, trans-8-Chloro-1-[4-(5-methyl-[1,3,4]oxadiazol-2-yl)-cyclohexyl]-5,6-dihydro-4H-2,3,5,10b-tetraaza-benzo[e]azulene] the Ki was 204 nM.
Compound `CCc1nc([C@H]2CC[C@@H](c3nnc4n3-c3ccc(Cl)cc3CN(C(=O)OC(C)(C)C)C4)CC2)no1` [Example 85, cis-8-Chloro-1-[4-(5-ethyl-[1,2,4]oxadiazol-3-yl)-cyclohexyl]-4H,6H-2,3,5,10b-tetraaza-benzo[e]azulene-5-carboxylic acid tert-butyl ester] has a Ki of 40.7 nM.
In the case of `Cc1nc([C@H]2CC[C@H](c3nnc4n3-c3ccc(Cl)cc3CNC4)CC2)cs1` [Example 20, trans-8-Chloro-1-[4-(2-methyl-thiazol-4-yl)-cyclohexyl]-5,6-dihydro-4H-2,3,5,10b-tetraaza-benzo[e]azulene], the Ki is reported as 12.3 nM.
`Cc1nn([C@H]2CC[C@H](c3nnc4n3-c3ccc(Cl)cc3CNC4)CC2)c(C)c1C` [Example 119, trans-8-Chloro-1-[4-(3,4,5-trimethyl-pyrazol-1-yl)-cyclohexyl]-5,6-dihydro-4H-2,3,5,10b-tetraaza-benzo[e]azulene] gave a Ki of 2.19 nM.
With `Cc1nnc([C@H]2CC[C@H](c3nnc4n3-c3ccc(Cl)cc3CN(C)C4)CC2)o1` [Example 65, trans-8-Chloro-5-methyl-1-[4-(5-methyl-[1,3,4]oxadiazol-2-yl)-cyclohexyl]-5,6-dihydro-4H-2,3,5,10b-tetraaza-benzo[e]azulene] the Ki was 15.8 nM.
With `Cc1nc([C@H]2CC[C@H](c3nnc4n3-c3ccc(Cl)cc3CN(C)C4)CC2)no1` [Example 74, trans-8-Chloro-5-methyl-1-[4-(5-methyl-[1,2,4]oxadiazol-3-yl)-cyclohexyl]-5,6-dihydro-4H-2,3,5,10b-tetraaza-benzo[e]azulene] the Ki was 3.24 nM.
`Cc1cc([C@H]2CC[C@H](c3nnc4n3-c3ccc(Cl)cc3CN(CC(F)F)C4)CC2)no1` [Example 28, trans-8-Chloro-5-(2,2-difluoro-ethyl)-1-[4-(5-methyl-isoxazol-3-yl)-cyclohexyl]-5,6-dihydro-4H-2,3,5,10b-tetraaza-benzo[e]azulene] was tested, and the Ki was 0.603 nM.
With `Cc1nc([C@H]2CC[C@H](c3nnc4n3-c3ccc(Cl)cc3CNC4)CC2)oc1Cl` [Example 99, trans-8-Chloro-1-[4-(5-chloro-4-methyl-oxazol-2-yl)-cyclohexyl]-5,6-dihydro-4H-2,3,5,10b-tetraaza-benzo[e]azulene] the Ki was 5.37 nM.
`Cc1nc([C@H]2CC[C@@H](c3nnc4n3-c3ccc(Cl)cc3CN(C(=O)OC(C)(C)C)C4)CC2)no1` [Example 82, cis-8-Chloro-1-[4-(5-methyl-[1,2,4]oxadiazol-3-yl)-cyclohexyl]-4H,6H-2,3,5,10b-tetraaza-benzo[e]azulene-5-carboxylic acid tert-butyl ester] showed a Ki of 14.8 nM.
Work on `Cc1nsc([C@H]2CC[C@H](c3nnc4n3-c3ccc(Cl)cc3CNC4)CC2)n1` [Example 70, trans-8-Chloro-1-[4-(3-methyl-[1,2,4]thiadiazol-5-yl)-cyclohexyl]-5,6-dihydro-4H-2,3,5,10b-tetraaza-benzo[e]azulene] yielded a Ki of 129 nM.
Compound `Cc1nn([C@H]2CC[C@H](c3nnc4n3-c3ccc(Cl)cc3CN(C(=O)OC(C)(C)C)C4)CC2)c(C)c1C` [Example 118, trans-8-Chloro-1-[4-(3,4,5-trimethyl-pyrazol-1-yl)-cyclohexyl]-4H,6H-2,3,5,10b-tetraaza-benzo[e]azulene-5-carboxylic acid tert-butyl ester] has a Ki of 0.832 nM.
Work on `Cc1onc([C@H]2CC[C@H](c3nnc4n3-c3ccc(Cl)cc3CN(C)C4)CC2)c1C` [Example 41, trans-8-Chloro-1-[4-(4,5-dimethyl-isoxazol-3-yl)-cyclohexyl]-5-methyl-5,6-dihydro-4H-2,3,5,10b-tetraaza-benzo[e]azulene] yielded a Ki of 0.501 nM.
For `Clc1ccc2c(c1)CNCc1nnc([C@H]3CC[C@H](n4cccn4)CC3)n1-2` [Example 110, trans-8-Chloro-1-(4-pyrazol-1-yl-cyclohexyl)-5,6-dihydro-4H-2,3,5,10b-tetraaza-benzo[e]azulene], the Ki was 42.7 nM.
`Cc1onc([C@H]2CC[C@H](c3nnc4n3-c3ccc(Cl)cc3CNC4)CC2)c1C` [Example 40, trans-8-Chloro-1-[4-(4,5-dimethyl-isoxazol-3-yl)-cyclohexyl]-5,6-dihydro-4H-2,3,5,10b-tetraaza-benzo[e]azulene] was tested, and the Ki was 4.79 nM.
For `CN1Cc2cc(Cl)ccc2-n2c(nnc2[C@H]2CC[C@@H](c3noc4c3CCCC4)CC2)C1` [Example 59, cis-8-Chloro-5-methyl-1-[4-(4,5,6,7-tetrahydro-benzo[d]isoxazol-3-yl)-cyclohexyl]-5,6-dihydro-4H-2,3,5,10b-tetraaza-benzo[e]azulene], the Ki was 8.13 nM.
With `Cc1nnc([C@H]2CC[C@H](c3nnc4n3-c3ccc(Cl)cc3CN(C(=O)OC(C)(C)C)C4)CC2)o1` [Example 63, trans-8-Chloro-1-[4-(5-methyl-[1,3,4]oxadiazol-2-yl)-cyclohexyl]-4H,6H-2,3,5,10b-tetraaza-benzo[e]azulene-5-carboxylic acid tert-butyl ester] the Ki was 1.58 nM.
For `Clc1ccc2c(c1)CNCc1nnc([C@H]3CC[C@H](c4onc5c4CCCC5)CC3)n1-2` [Example 61, trans-8-Chloro-1-[4-(4,5,6,7-tetrahydro-benzo[c]isoxazol-3-yl)-cyclohexyl]-5,6-dihydro-4H-2,3,5,10b-tetraaza-benzo[e]azulene], the Ki was 30.2 nM.
